These results are taken from ChEMBL document CHEMBL5131395 (Eur J Med Chem, 2022).

The test system of series [1] is Mus musculus. In words: Antifibrotic activity against BLM induced C57BL/6J mouse lung fibrosis model assessed as recovery of body weight at 60 mg/kg, ip pretreated with compound administered once daily for 3 days followed by BLM treatment and measured after 28 days. It is filed as functional, organism-based. Particulars: time 31.0 day.
A short description of series [2]: Downregulation of IL-6 expression in lung tissue of BLM induced C57BL/6J mouse lung fibrosis model assessed as fold reduction in IL-6 expression level at 60 mg/kg, ip by qRT-PCR analysis. The class given is functional. A general note: Real-time PCR tracks product formation cycle by cycle.
A short description of series [3]: In vivo inhibition of ATX in lung homogenate of BLM induced C57BL/6J mouse lung fibrosis model assessed as reduction in ATX activity using FS-3 as substrate at 60 mg/kg, ip by fluorescence based microplate reader analysis (reference value: 7.78%). The class given is functional.
A short description of series [4]: Downregulation of TGF-beta expression in lung tissue of BLM induced C57BL/6J mouse lung fibrosis model assessed as fold reduction in TGF-beta expression level at 60 mg/kg, ip by qRT-PCR analysis. It is filed as functional.
Series [5] has as its system Mus musculus. In words: Antifibrotic activity against BLM induced C57BL/6J mouse lung fibrosis model assessed as improvement in lung architecture by measuring appearance of fibrotic lesions at 60 mg/kg, ip pretreated with compound administered once daily for 3 days followed by BLM treatment and measured after 28 days by Masson staining based microscopic analysis. The class given is functional, organism-based. Particulars: time 31.0 day.

Series [6] relates to Mus musculus. In words: Antifibrotic activity against BLM induced C57BL/6J mouse lung fibrosis model assessed as improvement in lung architecture by measuring appearance of conterminous fibrotic walls at 60 mg/kg, ip pretreated with compound administered once daily for 3 days followed by BLM treatment and measured after 28 days by hematoxylin and eosin staining based microscopic analysis. The class given is functional, organism-based. Particulars: time 31.0 day.

Series [7] deals with Mus musculus. In words: Antifibrotic activity against BLM induced C57BL/6J mouse lung fibrosis model assessed as improvement in lung architecture by measuring appearance of conterminous fibrotic walls at 60 mg/kg, ip pretreated with compound administered once daily for 3 days followed by BLM treatment and measured after 28 days by Masson staining based microscopic analysis. Particulars: time 31.0 day. It is filed as functional, organism-based.

Series [8] is described as follows: Downregulation of TNF-alpha expression in lung tissue of BLM induced C57BL/6J mouse lung fibrosis model assessed as fold reduction in TNF-alpha expression level at 60 mg/kg, ip by qRT-PCR analysis. It is filed as functional.
In series [9] the test system is Mus musculus. Nature of the series: Antifibrotic activity against BLM induced C57BL/6J mouse lung fibrosis model assessed as improvement in lung architecture by measuring appearance of fibrotic lesions at 60 mg/kg, ip pretreated with compound administered once daily for 3 days followed by BLM treatment and measured after 28 days by hematoxylin and eosin staining based microscopic analysis. The class given is functional, organism-based. Particulars: time 31.0 day.

In series [10] the target is Autotaxin (Homo sapiens, UniProt Q13822). Nature of the series: Inhibition of human ATX using FS-3 as substrate preincubated for 45 mins followed by substrate addition measured every 1 min for 30 mins by fluorescence based microplate reader analysis.
The subject of series [11] is Mus musculus. In words: Antifibrotic activity against BLM induced C57BL/6J mouse lung fibrosis model assessed as improvement in lung architecture by measuring appearance of conterminous fibrotic walls at 30 to 60 mg/kg, ip pretreated with compound administered once daily for 3 days followed by BLM treatment and measured after 28 days by Masson staining based microscopic analysis. It is filed as functional, organism-based. The note with it: dose 30-60 mg/kg, time 31.0 day.

The subject of series [12] is Mus musculus. In words: Antifibrotic activity against BLM induced C57BL/6J mouse lung fibrosis model assessed as recovery of body weight at 30 to 60 mg/kg, ip pretreated with compound administered once daily for 3 days followed by BLM treatment and measured after 28 days. The class given is functional, organism-based. The note with it: dose 30-60 mg/kg, time 31.0 day.

Series [13] in a line: AUC (0 to infinity) in rat at 60 mg/kg, po by LC-MS/MS analysis. The class given is ADME, organism-based. On the set-up: time infinity, dose 60 mg/kg, route po. The note with it: in vivo.
Series [14] relates to Mus musculus. Nature of the series: Antifibrotic activity against BLM induced C57BL/6J mouse lung fibrosis model assessed as improvement in lung architecture by measuring appearance of fibrotic lesions at 30 to 60 mg/kg, ip pretreated with compound administered once daily for 3 days followed by BLM treatment and measured after 28 days by hematoxylin and eosin staining based microscopic analysis. The class given is functional, organism-based. The note with it: dose 30-60 mg/kg, time 31.0 day.

Series [15] is described as follows: AUC (0 to t) in rat at 60 mg/kg, po by LC-MS/MS analysis. The class given is ADME, organism-based. On the set-up: dose 60 mg/kg, route po. The note with it: in vivo.
Series [16] concerns Mus musculus. Nature of the series: Antifibrotic activity against BLM induced C57BL/6J mouse lung fibrosis model assessed as improvement in lung architecture by measuring appearance of fibrotic lesions at 30 to 60 mg/kg, ip pretreated with compound administered once daily for 3 days followed by BLM treatment and measured after 28 days by Masson staining based microscopic analysis. The class given is functional, organism-based. The note with it: dose 30-60 mg/kg, time 31.0 day.

Series [17] can be described thus: Half life in rat at 60 mg/kg, po by LC-MS/MS analysis. It is filed as ADME, organism-based. Particulars: in vivo.
Series [18] in a line: Cytotoxicity against human HBE cells assessed as lethal dose. It is filed as toxicity, cell-based. Particulars: HBE cells (epithelial cell line), read-out: LD50 (the source's name).
Series [19] is described as follows: Tmax in rat at 60 mg/kg, po by LC-MS/MS analysis. The note with it: in vivo. It is filed as ADME, organism-based.
In series [20] the test system is Mus musculus. In words: Antifibrotic activity against BLM induced C57BL/6J mouse lung fibrosis model assessed as improvement in lung architecture by measuring appearance of conterminous fibrotic walls at 30 to 60 mg/kg, ip pretreated with compound administered once daily for 3 days followed by BLM treatment and measured after 28 days by hematoxylin and eosin staining based microscopic analysis. The class given is functional, organism-based. Particulars: dose 30-60 mg/kg, time 31.0 day.

Series [21] in a line: Downregulation of IL-6 expression in lung tissue of BLM induced C57BL/6J mouse lung fibrosis model assessed as fold reduction in IL-6 expression level at 30 to 60 mg/kg, ip by qRT-PCR analysis. It is filed as functional. Particulars: dose 30-60 mg/kg.
A short description of series [22]: In vivo inhibition of ATX in lung homogenate of BLM induced C57BL/6J mouse lung fibrosis model assessed as reduction in ATX activity using FS-3 as substrate at 30 mg/kg, ip by fluorescence based microplate reader analysis (reference value: 7.78%). It is filed as functional.
A short description of series [23]: Downregulation of TNF-alpha expression in lung tissue of BLM induced C57BL/6J mouse lung fibrosis model assessed as fold reduction in TNF-alpha expression level at 30 to 60 mg/kg, ip by qRT-PCR analysis. The note with it: dose 30-60 mg/kg. The class given is functional.
Series [24] in a line: In vivo inhibition of ATX in BALF of BLM induced C57BL/6J mouse lung fibrosis model assessed as reduction in ATX activity using FS-3 as substrate at 30 to 60 mg/kg, ip by fluorescence based microplate reader analysis (reference value: 4.50%). The class given is functional, Bronchoalveolar lavage. The note with it: dose 30-60 mg/kg.
Series [25] in a line: Downregulation of TGF-beta expression in lung tissue of BLM induced C57BL/6J mouse lung fibrosis model assessed as fold reduction in TGF-beta expression level at 30 to 60 mg/kg, ip by qRT-PCR analysis. It is filed as functional. The note with it: dose 30-60 mg/kg.
Series [26] can be described thus: Cmax in rat at 60 mg/kg, po by LC-MS/MS analysis. It is filed as ADME, organism-based. On the set-up: dose 60 mg/kg, route po. The note with it: in vivo.
Series [27] can be described thus: Clearance in rat at 60 mg/kg, po by LC-MS/MS analysis. It is filed as ADME, organism-based. Particulars: in vivo.

The structures appear in SMILES notation. Calls of active or inactive are those of the source. The calls are words filed in the database; no cut-off is given here.

One may read the inhibition in vivo as the share of the control response that was lost under treatment. With `CCc1nc2c(C)cc(N3CCN(CC(=O)N4CC(O)C4)CC3)cn2c1N(C)c1nc(-c2ccc(F)cc2)c(C#N)s1` [ZIRITAXESTAT], the result in series [1], in series [5], in [6], in [7] and in [9] was Active. Also, the “fold change (FC)” value in series [2], in series [4] and in [8] was 2 in each case. For the same compound, in [3], the inhibition in vivo at 60 mg/kg was found to be 5.54%.

For orientation: IC50 means the concentration that gives 50% inhibition. A higher IC50 goes with weaker potency. With `CCn1cc(NC(=O)NCc2ccc(Cl)cc2)c2cc(-c3nc(CN(CCO)CCO)cs3)ccc21`, the IC50 in series [10] amounted to 30 nM.

Usually AUC stands for the area under the concentration-time curve, a measure of exposure. Lower therefore signals less exposure. In general, AUC(0-t) refers to the area under the concentration-time curve up to a stated or last time point. As a reminder, the half-life is how long it takes for the measured level to halve. In general, Tmax refers to the time at which the peak concentration occurs. As usually defined, the Cmax is the highest concentration seen after dosing. Turning to `CCn1cc(NC(=O)NCc2ccc(OC)c(Cl)c2)c2cc(-c3nc(CN(CCO)CCO)cs3)ccc21`, in [10], the IC50 was 2.17 nM. The outcome in series [11], in series [12], in series [14], in [16] and in [20] was Active. Also, the inhibition in vivo at 60 mg/kg in series [3] was found to be 5.03%. The same compound showed an exposure (AUC) in [13] of 680 ng·h/mL. This compound came in with an AUC(0-t) in [15] of 670 ng·h/mL. The compound further showed a half-life in [17] of 3.11 h. Moreover, the CC50 in [18] is greater than 20000 nM. The Tmax in [19] was determined as 3.91 h. Moreover, the “fold change (FC)” value in [21], in [23] and in series [25] was 2 each time. For the same compound, in [22], the inhibition in vivo at 30 mg/kg turned out to be 5.59%. Besides, the “inhibition (INH)” value in series [24] was found to be 3.23%. The compound further yielded a Cmax in series [26] of 131 ng/mL.

Broadly, the CL/F is clearance divided by bioavailability, as obtained after extravascular dosing. The compound `CCn1cc(NC(=O)OCc2cc(Cl)cc(Cl)c2)c2cc(-c3nc(CN4CCOCC4)cs3)ccc21` showed a CL/F in series [27] of 6.35 mL/min/kg. The compound also came in with an AUC in series [13] of 240 ng·h/mL. The AUCt in [15] was found to be 240 ng·h/mL. Besides, the half-life in series [17] is 2.56 h. Also, the Tmax in series [19] was 2.67 h. Also, the Cmax in [26] (read-out: Cmax) is 50 ng/mL.
